Data reported in patent US9162992B2, “Compounds and compositions for treatment of breathing control disorders or diseases” (GALLEON PHARMACEUTICALS, INC., priority 2010, dated 2015).

What was measured:
[1] = Stability as a function of pH 2-6 (1 mg/mL, 0.25 mg/mL at pH 6; 10 mM citric acid and glycine); format: physicochemical; parameters: growth in impurities / Assay: unit not given here; details: for Impurities: in %
Procedure: Buffer solutions containing ca. 10 mM each of citric acid and glycine in the pH range 2-6 were prepared by titrating 250 mL of a single stock containing both buffer agents with 1N NaOH/1N HCl and removing 50 mL aliquots at predetermined pH values. XXXVI solutions at 1 mg/mL were prepared in buffers of pH 2-5 by dissolving ˜25 mg of XXXVI in ˜23 mL of a given buffer, adjusting the pH to the target and making up the volume to 25.0 mL in a volumetric flask. (XXXVI) solution at pH 6 was prepared similarly, but at a lower drug concentration of 0.25 mg/mL using 6.68 mg of (XXXVI).
Each of the buffered XXXV solutions was filtered through a 0.2 μm polyether sulfone syringe filter into a volumetric flask, which had been previously rinsed with 70% ethanol and dried in a laminar flow hood. Following filtration, each buffered (XXXV) solution was split into 10 aliquots (9 aliquots of 2.5 mL each and 1 aliquot of 2 mL) in 5 mL serum vials previously rinsed with 70% ethanol and dried in a laminar flow hood. Filtration and preparation of aliquots were performed in a laminar flow hood. The 2 mL aliquot of each buffered (XXXV) solution was submitted for T0 analysis (HPLC assay and related substances).
Of the nine 2.5 mL aliquots, three aliquots were stored at each 40° C. and 60° C., two aliquots were stored at 25° C. and one aliquot was stored at −70° C. Samples stored at 40° C. and at 60° C. were evaluated for physical appearance, pH, assay and related substances after 1 week, 2 weeks and 4 weeks of storage. Samples at 25° C. and −70° C. served as controls to be analyzed if necessary.

[2] = test system: morphine-induced respiratory depression; assay: Effects of morphine and compound on arterial blood gases in the rat; format: in vivo; details: for PaCO2 (% reversal) / PaO2 (% reversal) / SaO2 (% reversal) / pH (% reversal): morphine 10 mg/kg
Procedure: Rats with pre-cannulated jugular vein and femoral arterial catheters (for administering drugs and obtaining blood samples respectively) were obtained from Harlan laboratories and kept at the animal facility at Galleon Pharmaceuticals until the experimental procedures. Each animal was dosed with morphine sulfate (10 mg/kg), dissolved in saline at a concentration of 10 mg/mL, via injection into the jugular vein over a period of 20 seconds with a 20 second flush of 0.9% NaCl saline. Prior to morphine administration, two 250 μL samples of arterial blood were aspirated from the femoral artery into a pre-heparinized syringe. The samples were analyzed on Radiometer's ABL Flex 800, where pO2, pCO2, pH, SaO2 and other parameters were recorded. Aspirated volumes of arterial blood were replaced by room temperature sterile saline (˜300 μL) slowly flushed back into the femoral arterial catheter of the rodent to prevent hypovolemia. Morphine was then administered and 2 minutes later another blood sample was taken.
The infusion started at t=15 minutes and ended at t=35 minutes. Arterial blood gas analysis occurred at time points t=12, 18, 25, 35, 40, 45, and 50 minutes.

In the case of `CCCNc1nc(NCCC)nc(N(C)OC)n1` [XXXV, N-(4,6-Bis-n-propylamino-[1,3,5]triazin-2-yl)-N,O-dimethyl-hydroxylamine], the physical appearance ([1]; all samples, up to 4 weeks at 40° C. and 60° C.) is reported as “remained clear, colorless and particle free”, the “stability at pH 2 compared to remaining pH values” ([1]; assay and impurities data) is reported as “significantly less stable at pH 2” and the growth in impurities ([1]; pH 3-6, 40° C. and 60° C.) is reported as greater than 0.2. The Assay ([1]; target pH 2, 40° C. 1 wk) was 0.997, the pH ([1]; target pH 2, 40° C. 1 wk) was 2.02 and the Impurities ([1]; target pH 2, 40° C. 1 wk) was 0.58. It also gave an Assay ([1]; target pH 2, 40° C. 2 wk) of 0.975, a pH ([1]; target pH 2, 40° C. 2 wk) of 1.98 and an Impurities ([1]; target pH 2, 40° C. 2 wk) of 1.48. It also gave an Assay ([1]; target pH 2, 40° C. 4 wk) of 0.970, a pH ([1]; target pH 2, 40° C. 4 wk) of 2.00 and an Impurities ([1]; target pH 2, 40° C. 4 wk) of 2.49. It also gave an Assay ([1]; target pH 2, 60° C. 1 wk) of 0.929, a pH ([1]; target pH 2, 60° C. 1 wk) of 2.00 and an Impurities ([1]; target pH 2, 60° C. 1 wk) of 3.83. The Assay ([1]; target pH 2, 60° C. 2 wk) was 0.754, the pH ([1]; target pH 2, 60° C. 2 wk) was 1.99 and the Impurities ([1]; target pH 2, 60° C. 2 wk) was 9.89. The Assay ([1]; target pH 2, 60° C. 4 wk) was 0.754, the pH ([1]; target pH 2, 60° C. 4 wk) was 2.01 and the Impurities ([1]; target pH 2, 60° C. 4 wk) was 14.34. For the same molecule, the Assay ([1]; target pH 2, initial) was 1.02, the pH ([1]; target pH 2, initial) was 1.96 and the Assay ([1]; target pH 3, 40° C. 1 wk) was 0.984. The pH ([1]; target pH 3, 40° C. 1 wk) was 3.05, the Assay ([1]; target pH 3, 40° C. 2 wk) was 0.987 and the pH ([1]; target pH 3, 40° C. 2 wk) was 3.05. The Impurities ([1]; target pH 3, 40° C. 2 wk) was 0.19, the Assay ([1]; target pH 3, 40° C. 4 wk) was 0.991 and the pH ([1]; target pH 3, 40° C. 4 wk) was 3.06. For the same molecule, the Impurities ([1]; target pH 3, 40° C. 4 wk) was 0.41, the Assay ([1]; target pH 3, 60° C. 1 wk) was 0.971 and the pH ([1]; target pH 3, 60° C. 1 wk) was 3.07. It also gave an Impurities ([1]; target pH 3, 60° C. 1 wk) of 0.71, an Assay ([1]; target pH 3, 60° C. 2 wk) of 0.952 and a pH ([1]; target pH 3, 60° C. 2 wk) of 3.03. For the same molecule, the Impurities ([1]; target pH 3, 60° C. 2 wk) was 1.20, the Assay ([1]; target pH 3, 60° C. 4 wk) was 0.952 and the pH ([1]; target pH 3, 60° C. 4 wk) was 3.07. For the same molecule, the Impurities ([1]; target pH 3, 60° C. 4 wk) was 2.19, the Assay ([1]; target pH 3, initial) was 0.984 and the pH ([1]; target pH 3, initial) was 3.02. For the same molecule, the Assay ([1]; target pH 4, 40° C. 1 wk) was 0.999, the pH ([1]; target pH 4, 40° C. 1 wk) was 3.94 and the Assay ([1]; target pH 4, 40° C. 2 wk) was 1.006. It also gave a pH ([1]; target pH 4, 40° C. 2 wk) of 3.96, an Impurities ([1]; target pH 4, 40° C. 2 wk) of 0.17 and an Assay ([1]; target pH 4, 40° C. 4 wk) of 1.012. It also gave a pH ([1]; target pH 4, 40° C. 4 wk) of 3.96, an Impurities ([1]; target pH 4, 40° C. 4 wk) of 0.22 and an Assay ([1]; target pH 4, 60° C. 1 wk) of 0.992. The pH ([1]; target pH 4, 60° C. 1 wk) was 3.94, the Assay ([1]; target pH 4, 60° C. 2 wk) was 0.979 and the pH ([1]; target pH 4, 60° C. 2 wk) was 3.96. It also gave an Impurities ([1]; target pH 4, 60° C. 2 wk) of 0.52, an Assay ([1]; target pH 4, 60° C. 4 wk) of 0.979 and a pH ([1]; target pH 4, 60° C. 4 wk) of 3.97. It also gave an Impurities ([1]; target pH 4, 60° C. 4 wk) of 1.02, an Assay ([1]; target pH 4, initial) of 1.01 and a pH ([1]; target pH 4, initial) of 4.00. The Assay ([1]; target pH 5, 40° C. 1 wk) was 0.989, the pH ([1]; target pH 5, 40° C. 1 wk) was 4.90 and the Assay ([1]; target pH 5, 40° C. 2 wk) was 0.992. For the same molecule, the pH ([1]; target pH 5, 40° C. 2 wk) was 4.95, the Impurities ([1]; target pH 5, 40° C. 2 wk) was 0.26 and the Assay ([1]; target pH 5, 40° C. 4 wk) was 0.977. The pH ([1]; target pH 5, 40° C. 4 wk) was 4.97, the Assay ([1]; target pH 5, 60° C. 1 wk) was 0.977 and the pH ([1]; target pH 5, 60° C. 1 wk) was 4.92. It also gave an Assay ([1]; target pH 5, 60° C. 2 wk) of 0.947, a pH ([1]; target pH 5, 60° C. 2 wk) of 4.93 and an Impurities ([1]; target pH 5, 60° C. 2 wk) of 0.62. The Assay ([1]; target pH 5, 60° C. 4 wk) was 0.947, the pH ([1]; target pH 5, 60° C. 4 wk) was 4.98 and the Impurities ([1]; target pH 5, 60° C. 4 wk) was 1.10. The Assay ([1]; target pH 5, initial) was 1.01, the pH ([1]; target pH 5, initial) was 5.03 and the Assay ([1]; target pH 6, 40° C. 1 wk) was 0.257. It also gave a pH ([1]; target pH 6, 40° C. 1 wk) of 5.88, an Assay ([1]; target pH 6, 40° C. 2 wk) of 0.253 and a pH ([1]; target pH 6, 40° C. 2 wk) of 6.02. For the same molecule, the Impurities ([1]; target pH 6, 40° C. 2 wk) was 0.25, the Assay ([1]; target pH 6, 40° C. 4 wk) was 0.251 and the pH ([1]; target pH 6, 40° C. 4 wk) was 5.98. The Impurities ([1]; target pH 6, 40° C. 4 wk) was 0.28, the Assay ([1]; target pH 6, 60° C. 1 wk) was 0.247 and the pH ([1]; target pH 6, 60° C. 1 wk) was 5.87. It also gave an Impurities ([1]; target pH 6, 60° C. 1 wk) of 0.56, an Assay ([1]; target pH 6, 60° C. 2 wk) of 0.234 and a pH ([1]; target pH 6, 60° C. 2 wk) of 6.03. The Impurities ([1]; target pH 6, 60° C. 2 wk) was 0.87, the Assay ([1]; target pH 6, 60° C. 4 wk) was 0.234 and the pH ([1]; target pH 6, 60° C. 4 wk) was 6.01. The Impurities ([1]; target pH 6, 60° C. 4 wk) was 1.65, the Assay ([1]; target pH 6, initial) was 0.260 and the pH ([1]; target pH 6, initial) was 6.05.

With `CCCNc1nc(NCCC)nc(N(C)OC)n1.O=S(=O)(O)O` [XXXVI, N-(4,6-Bis-n-propylamino-[1,3,5]triazin-2-yl)-N,O-dimethyl-hydroxylamine hydrogen sulfate] the “arterial blood gases, reversal of opioid-induced respiratory depression” value ([2]; infusion 0.1, 0.3 and 1.0 mg/kg/min, vs vehicle) was “significantly reverses opioid-induced respiratory depression”, the “PaCO2 (% reversal)” value ([2]; infusion 0.03 mg/kg/min) was 18 % reversal and the “PaO2 (% reversal)” value ([2]; infusion 0.03 mg/kg/min) was −2.0 % reversal. The “SaO2 (% reversal)” value ([2]; infusion 0.03 mg/kg/min) was 42 % reversal, the “pH (% reversal)” value ([2]; infusion 0.03 mg/kg/min) was 20 % reversal and the “PaCO2 (% reversal)” value ([2]; infusion 0.1 mg/kg/min) was 47 % reversal. For the same molecule, the “PaO2 (% reversal)” value ([2]; infusion 0.1 mg/kg/min) was 16 % reversal, the “SaO2 (% reversal)” value ([2]; infusion 0.1 mg/kg/min) was 51 % reversal and the “pH (% reversal)” value ([2]; infusion 0.1 mg/kg/min) was 37 % reversal. The “PaCO2 (% reversal)” value ([2]; infusion 0.3 mg/kg/min) was 72 % reversal, the “PaO2 (% reversal)” value ([2]; infusion 0.3 mg/kg/min) was −16 % reversal and the “SaO2 (% reversal)” value ([2]; infusion 0.3 mg/kg/min) was 43 % reversal. For the same molecule, the “pH (% reversal)” value ([2]; infusion 0.3 mg/kg/min) was 55 % reversal, the “PaCO2 (% reversal)” value ([2]; infusion 1 mg/kg/min) was 94 % reversal and the “PaO2 (% reversal)” value ([2]; infusion 1 mg/kg/min) was 26 % reversal. For the same molecule, the “SaO2 (% reversal)” value ([2]; infusion 1 mg/kg/min) was 62 % reversal and the “pH (% reversal)” value ([2]; infusion 1 mg/kg/min) was 60 % reversal.
